Patent publication EP0360258B1, “Amino acid quinoline and naphthyridine derivatives” (ABBOTT LABORATORIES, priority 1988, dated 1990)
In brackets after ≈: the same amount, converted by molar mass. Where a name gives a salt, the structure may show the parent alone. Read-outs that look alike come from different tables or passages of the source.

How the values were obtained:
Stap. Aureus CMX 553 = assay: Second in vitro antibacterial test, MIC (BHIB); assay type: cell-based; settings: Brain Heart Infusion Broth (BHIB)
Strep. pyogenes EES 61 = assay: Second in vitro antibacterial test, MIC (BHIB); assay type: cell-based
E.Coli Juhl = assay: Second in vitro antibacterial test, MIC (BHIB); assay type: cell-based; settings: Brain Heart Infusion Broth (BHIB)
Ps.Aeruginosa A5007 = assay: Second in vitro antibacterial test, MIC (BHIB); assay type: cell-based; settings: Brain Heart Infusion Broth (BHIB)
[1] = Staphylococcus aureus, read-out: MIC
[2] = Streptococcus pyogenes, EES61, Brain Heart Infusion Broth (BHIB), read-out: MIC
[3] = Escherichia coli, read-out: MIC
[4] = Pseudomonas aeruginosa, read-out: MIC
[5] = Brain Heart Infusion Broth (BHIB)

Row | solubility (physchem; pH 7.4) [µg/mL] | solubility (physchem; water) [µg/mL] | MIC (Stap. Aureus CMX 553; [1]) [µg/mL] | MIC (Strep. pyogenes EES 61; [2]) [µg/mL] | MIC (E.Coli Juhl; [3]) [µg/mL] | MIC (Ps.Aeruginosa A5007; [4]) [µg/mL] | MIC (Stap. Aureus CMX 553) [µg/mL] | MIC (Strep. pyogenes EES 61; [5]) [µg/mL] | MIC (E.Coli Juhl) [µg/mL] | MIC (Ps.Aeruginosa A5007) [µg/mL] | Compound
1 | 14 (≈ 36.2 µM) | 1400 (≈ 3620 µM) |  |  |  |  |  |  |  |  | NC1CCN(c2nc3c(cc2F)c(=O)c(C(=O)O)cn3-c2ccc(F)cc2)C1 (stereo not drawn) [A, 7-(3-amino-1-pyrrolidinyl)-6-fluoro-1-(4-fluorophenyl)-1,4-dihydro-4-oxo-1,8-naphthyridine-3-carboxylic acid, reference compound]
2 |  |  | 1.56 (≈ 3.38 µM) | 0.78 (≈ 1.69 µM) | 0.78 (≈ 1.69 µM) | 12.5 (≈ 27.1 µM) |  |  |  |  | NCC(=O)NC1CCN(c2nc3c(cc2F)c(=O)c(C(=O)O)cn3-c2ccc(F)cc2F)C1 (stereo not drawn) [Example 7]
3 | 590 (≈ 948 µM) | > 20000 | 16 (≈ 25.7 µM) |  | 16 (≈ 25.7 µM) | 128 (≈ 206 µM) |  |  |  |  | CC(N)C(=O)NC(Cc1ccccc1)C(=O)NC1CCN(c2nc3c(cc2F)c(=O)c(C(=O)O)cn3-c2ccc(F)cc2F)C1 (stereo not drawn) [Example 11]
4 | 60 (≈ 106 µM) | > 90000 | 12.5 (≈ 22 µM) | 12.5 (≈ 22 µM) | 12.5 (≈ 22 µM) | 50 (≈ 88.1 µM) |  |  |  |  | NC(Cc1ccc(O)cc1)C(=O)NC1CCN(c2nc3c(cc2F)c(=O)c(C(=O)O)cn3-c2ccc(F)cc2F)C1 (stereo not drawn) [Example 13]
5 | 120 (≈ 252 µM) | > 20000 | 2 (≈ 4.21 µM) |  | 0.5 (≈ 1.05 µM) | 16 (≈ 33.7 µM) |  |  |  |  | CC(N)C(=O)NC1CCN(c2nc3c(cc2F)c(=O)c(C(=O)O)cn3-c2ccc(F)cc2F)C1 (stereo not drawn) [Example 17]
6 | 410 (≈ 814 µM) | > 10000 |  |  |  |  |  |  |  |  | CC(C)C(N)C(=O)NC1CCN(c2nc3c(cc2F)c(=O)c(C(=O)O)cn3-c2ccc(F)cc2F)C1 (stereo not drawn) [Example 19]
7 | 140 (≈ 271 µM) | > 35000 | 1.56 (≈ 3.01 µM) | 6.2 (≈ 12 µM) | 1.56 (≈ 3.01 µM) | 25 (≈ 48.3 µM) |  |  |  |  | CC(C)CC(N)C(=O)NC1CCN(c2nc3c(cc2F)c(=O)c(C(=O)O)cn3-c2ccc(F)cc2F)C1 (stereo not drawn) [Example 21]
8 |  |  | 3.12 (≈ 5.83 µM) | 3.12 (≈ 5.83 µM) | 3.12 (≈ 5.83 µM) | 5 (≈ 9.34 µM) |  |  |  |  | CSCCC(N)C(=O)NC1CCN(c2nc3c(cc2F)c(=O)c(C(=O)O)cn3-c2ccc(F)cc2F)C1 (stereo not drawn) [Example 23]
9 |  |  |  |  |  |  | 0.39 (≈ 0.776 µM) | 1.56 (≈ 3.1 µM) | 0.78 (≈ 1.55 µM) | 6.2 (≈ 12.3 µM) | CCCC(N)C(=O)NC1CCN(c2cc3c(cc2F)c(=O)c(C(=O)O)cn3-c2ccc(F)cc2F)C1 (stereo not drawn) [Example 26b]
10 |  |  |  |  |  |  | 1.56 (≈ 3.72 µM) | 6.2 (≈ 14.8 µM) | 1.56 (≈ 3.72 µM) | 12.5 (≈ 29.8 µM) | CCC[C@H](N)C(=O)NC1CCN(c2nc3c(cc2F)c(=O)c(C(=O)O)cn3CC)C1 (stereo partly drawn) [Example 26ff]
11 |  |  |  |  |  |  | 0.78 (≈ 1.61 µM) | 1.56 (≈ 3.22 µM) | 0.78 (≈ 1.61 µM) | 6.2 (≈ 12.8 µM) | CCCC(N)C(=O)NC1CCN(c2cc3c(cc2F)c(=O)c(C(=O)O)cn3-c2ccc(F)cc2)C1 (stereo not drawn) [Example 26h]
12 | 240 (≈ 494 µM) | > 9000 | 1.56 (≈ 3.21 µM) | 1.56 (≈ 3.21 µM) | 0.39 (≈ 0.803 µM) | 6.2 (≈ 12.8 µM) |  |  |  |  | CCCC(N)C(=O)NC1CCN(c2nc3c(cc2F)c(=O)c(C(=O)O)cn3-c2ccc(F)cc2)C1 (stereo not drawn) [Example 26i]
13 |  |  |  |  |  |  | 16 | 32 | 16 | 64 | Cl.NCC(=O)N[C@@H](Cc1ccccc1)C(=O)NC1CCN(c2cc3c(cc2F)c(=O)c(C(=O)O)cn3-c2ccc(F)cc2F)C1 (stereo partly drawn) [Example 26jj, 1-(2,4-Difluorophenyl)-6-Fluoro-7-(3-Gly-L-Phe -Amino-1-Pyrrolidinyl)-1,4-Dihydro-4-Oxo-Quinoline-3-Carboxylic Acid Hydrochloride]
14 |  |  |  |  |  |  | 0.39 (≈ 0.875 µM) | 3.1 (≈ 6.96 µM) | 0.2 (≈ 0.449 µM) | 1.56 (≈ 3.5 µM) | CC(C)CC(N)C(=O)NC1CCN(c2nc3c(cc2F)c(=O)c(C(=O)O)cn3C2CC2)C1 (stereo not drawn) [Example 26o]
15 |  |  |  |  |  |  | 0.39 (≈ 0.904 µM) | 3.1 (≈ 7.18 µM) |  | 1.56 (≈ 3.62 µM) | CCCC(N)C(=O)NC1CCN(c2nc3c(cc2F)c(=O)c(C(=O)O)cn3C2CC2)C1 (stereo not drawn) [Example 26p]
16 |  |  | 1.56 (≈ 3.11 µM) | 1.56 (≈ 3.11 µM) | 1.56 (≈ 3.11 µM) | 12.5 (≈ 24.9 µM) |  |  |  |  | O=C(O)c1cn(-c2ccc(F)cc2F)c2nc(N3CCC(NC(=O)C4CCCN4)C3)c(F)cc2c1=O (stereo not drawn) [Example 28]
17 |  |  | 25 (≈ 40.5 µM) | 100 (≈ 162 µM) | 25 (≈ 40.5 µM) | > 100 |  |  |  |  | CCC[C@H](NC(=O)CNC(=O)CN)C(=O)NC1CCN(c2nc3c(cc2F)c(=O)c(C(=O)O)cn3-c2ccc(F)cc2F)C1 (stereo partly drawn) [Example 30]
18 | 30 | > 35000 | 25 | 25 | 12.5 | > 100 |  |  |  |  | CS(=O)(=O)CC[C@H](N)C(=O)NC1CCN(c2nc3c(cc2F)c(=O)c(C(=O)O)cn3-c2ccc(F)cc2F)C1 (stereo partly drawn) [Example 31c, 7-[3-L-Methioninesulfone-Amino-1-Pyrrolidinyl]-1-(2,4-Difluorophenyl)-6-Fluoro-1,4-Dihydro-4-Oxo 1,8-Naphthyridine-3-Carboxylic Acid Hydrochloride]
19 | 400 | > 35000 |  |  |  |  |  |  |  |  | NC(=O)C[C@H](N)C(=O)NC1CCN(c2nc3c(cc2F)c(=O)c(C(=O)O)cn3-c2ccc(F)cc2F)C1 (stereo partly drawn) [Example 41, 7-(3-L-Asparagine-amino-1-pyrrolidinyl)-1-(2,4-difluorophenyl)-6-fluoro-1,4-dihydro-4-oxo-1,8-naphthyridine-3-carboxylic acid hydrochloride]
20 | 300 | > 100000 | 16 | 32 | 64 | > 64 |  |  |  |  | N[C@@H](Cc1cnc[nH]1)C(=O)NC1CCN(c2nc3c(cc2F)c(=O)c(C(=O)O)cn3-c2ccc(F)cc2F)C1 (stereo partly drawn) [Example 44c, 7-[3-L-Histidine-Amino-1-Pyrrolidinyl)-1-(2,4-Difluorophenyl)-6-Fluoro-1,4-Dihydro-4-oxo-1,8-Naphthyridine-3-Carboxylic Acid Dihydrochloride]
21 | 2400 | 4100 |  |  |  |  |  |  |  |  | N[C@@H](CC(=O)O)C(=O)NC1CCN(c2nc3c(cc2F)c(=O)c(C(=O)O)cn3-c2ccc(F)cc2F)C1 (stereo partly drawn) [Example 45, 7-(3-L-Asp-amino-1-pyrrolidinyl)-1-(2,4-difluorophenyl)-6-fluoro-1,4-dihydro-4-oxo-1,8-naphthyridine-3-carboxylic acid hydrochloride]
22 |  |  |  |  |  |  | 100 | 100 | 3.12 | >100 | Cl.Cl.NCCCC[C@H](N)C(=O)NC1CCN(c2nc3c(cc2F)c(=O)c(C(=O)O)cn3-c2ccc(F)cc2F)C1 (stereo partly drawn) [Example 46, 7-(3-Lys-amino-1-pyrrolidinyl)-1-(2,4-difluorophenyl)-6-fluoro-1,4-dihydro-4-oxo-1,8-naphthyridine-3-carboxylic acid dihydrochloride]
23 | 80 (≈ 143 µM) | 6890 (≈ 12300 µM) |  |  |  |  |  |  |  |  | CCC[C@H](NC(=O)CN)C(=O)NC1CCN(c2nc3c(cc2F)c(=O)c(C(=O)O)cn3-c2ccc(F)cc2F)C1 (stereo partly drawn) [Example 52]
24 | 1030 (≈ 1790 µM) | 26000 (≈ 45300 µM) |  |  |  |  |  |  |  |  | CCC[C@H](NC(=O)[C@H](C)N)C(=O)NC1CCN(c2nc3c(cc2F)c(=O)c(C(=O)O)cn3-c2ccc(F)cc2F)C1 (stereo partly drawn) [Example 55b, 7-(3-Ala-Nval-amino-1-pyrrolidinyl)-6-fluoro-1-(2,4-difluorophenyl)-1,4-dihydro-4-oxo-1,8-naphthyridine-3-carboxylic acid]
25 | 2500 (≈ 4120 µM) | 20000 (≈ 33000 µM) |  |  |  |  |  |  |  |  | CSCC[C@H](NC(=O)[C@H](C)N)C(=O)NC1CCN(c2nc3c(cc2F)c(=O)c(C(=O)O)cn3-c2ccc(F)cc2F)C1 (stereo partly drawn) [Example 55n, 7-(3-Ala-Met-amino-1-pyrrolidinyl)-6-fluoro-1-(2,4-difluorophenyl)-1,4-dihydro-4-oxo-1,8-naphthyridine-3-carboxylic acid]
26 | 310 (≈ 465 µM) | 22000 (≈ 33000 µM) |  |  |  |  |  |  |  |  | CSCC[C@H](NC(=O)[C@@H](N)CCSC)C(=O)NC1CCN(c2nc3c(cc2F)c(=O)c(C(=O)O)cn3-c2ccc(F)cc2F)C1 (stereo partly drawn) [Example 55o, 7-(3-Met-Met-amino-1-pyrrolidinyl)-6-fluoro-1-(2,4-difluorophenyl)-1,4-dihydro-4-oxo-1,8-naphthyridine-3-carboxylic acid]
27 | 60 (≈ 92.5 µM) | 23000 (≈ 35500 µM) |  |  |  |  |  |  |  |  | CSCC[C@H](NC(=O)[C@@H](N)CC(C)C)C(=O)NC1CCN(c2nc3c(cc2F)c(=O)c(C(=O)O)cn3-c2ccc(F)cc2F)C1 (stereo partly drawn) [Example 55p, 7-(3-Leu-Met-amino-1-pyrrolidinyl)-6-fluoro-1-(2,4-difluorophenyl)-1,4-dihydro-4-oxo-1,8-naphthyridine-3-carboxylic acid]
28 | 190 (≈ 301 µM) | 19000 (≈ 30100 µM) |  |  |  |  |  |  |  |  | CC(C)C[C@H](NC(=O)[C@@H](N)CC(C)C)C(=O)NC1CCN(c2nc3c(cc2F)c(=O)c(C(=O)O)cn3-c2ccc(F)cc2F)C1 (stereo partly drawn) [Example 55q, 7-(3-Leu-Leu-amino-1-pyrrolidinyl)-6-fluoro-1-(2,4-difluorophenyl)-1,4-dihydro-4-oxo-1,8-naphthyridine-3-carboxylic acid]
29 | 2000 (≈ 3400 µM) | 26000 (≈ 44200 µM) |  |  |  |  |  |  |  |  | CC(C)C[C@H](NC(=O)[C@H](C)N)C(=O)NC1CCN(c2nc3c(cc2F)c(=O)c(C(=O)O)cn3-c2ccc(F)cc2F)C1 (stereo partly drawn) [Example 55r, 7-(3-Ala-Leu-amino-1-pyrrolidinyl)-6-fluoro-1-(2,4-difluorophenyl)-1,4-dihydro-4-oxo-1,8-naphthyridine-3-carboxylic acid]

Row | Compound | solubility (physchem; pH 7.4) [µg/mL] | solubility (physchem; water) [µg/mL] | MIC (Stap. Aureus CMX 553; [1]) [µg/mL] | MIC (Strep. pyogenes EES 61; [2]) [µg/mL] | MIC (E.Coli Juhl; [3]) [µg/mL] | MIC (Ps.Aeruginosa A5007; [4]) [µg/mL] | MIC (Stap. Aureus CMX 553) [µg/mL] | MIC (Strep. pyogenes EES 61; [5]) [µg/mL] | MIC (E.Coli Juhl) [µg/mL] | MIC (Ps.Aeruginosa A5007) [µg/mL]
30 | CCC[C@H](NC(=O)[C@@H](N)CCC)C(=O)NC1CCN(c2nc3c(cc2F)c(=O)c(C(=O)O)cn3-c2ccc(F)cc2F)C1 (stereo partly drawn) [Example 3b, 7-(3-L-Norvaline-L-Norvalineamino-1-pyrrolidinyl)-1-(2,4-difluorophenyl)-6-fluoro-1,4-dihydro-4-oxo-1,8-naphthyridine-3-carboxylic acid hydrochloride] | 680 | > 40000 | 12.5 | 12.5 | 25 | 50 |  |  |  | 
